Results reported in PubChem BioAssay AID256 (DTP/NCI, 2004).
Where “and” joins values, the source holds several entries; their conditions need not be identical. Equal entries are not always repeated. Toxic doses and inconclusive results are not listed. Rule for the calls: active = survival T/C of 150% or more; inactive = T/C below 125% in these data.

Test system: CD2F1 mice, L1210 leukemia ip, survival T/C
Experiment: NCI In Vivo Anticancer Drug Screen. Data for tumor model L1210 Leukemia (intraperitoneal) in CD2F1 (CDF1) mice
Details: higher = longer survival
In short: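 Ratio T/C, where T is the treated-group value and C the vehicle-dosed control value, from mice implanted with a transplantable tumor.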

[1] = endpoint: mean survival time, dose: 12.5 mg/kg/injection, schedule: Q01DX009 (ip), vehicle: olive oil, sesame oil, peanut oil
[2] = endpoint: mean survival time, dose: 25.0 mg/kg/injection, schedule: Q01DX009 (ip), vehicle: olive oil, sesame oil, peanut oil
[3] = endpoint: mean survival time, dose: 50.0 mg/kg/injection, schedule: Q01DX009 (ip), vehicle: olive oil, sesame oil, peanut oil
[4] = endpoint: mean survival time, dose: 100.0 mg/kg/injection, schedule: Q01DX009 (ip), vehicle: olive oil, sesame oil, peanut oil
[5] = endpoint: mean survival time, dose: 200.0 mg/kg/injection, schedule: Q01DX009 (ip), vehicle: olive oil, sesame oil, peanut oil
[6] = endpoint: mean survival time, dose: 400.0 mg/kg/injection, schedule: Q01DX009 (ip), vehicle: olive oil, sesame oil, peanut oil
[7] = endpoint: mean survival time, dose: 100.0 mg/kg/injection, schedule: Q04DX003 (ip), vehicle: saline with Tween-80
[8] = endpoint: mean survival time, dose: 100.0 mg/kg/injection, schedule: Q01DX009 (ip), vehicle: saline with Tween-80
[9] = endpoint: mean survival time, dose: 200.0 mg/kg/injection, schedule: Q01DX009 (ip), vehicle: saline with Tween-80
[10] = endpoint: mean survival time, dose: 400.0 mg/kg/injection, schedule: Q01DX009 (ip), vehicle: saline with Tween-80
[11] = endpoint: mean survival time, dose: 100.0 mg/kg/injection, schedule: Q01DX001 (ip), vehicle: saline with Tween-80
[12] = endpoint: mean survival time, dose: 200.0 mg/kg/injection, schedule: Q01DX001 (ip), vehicle: saline with Tween-80
[13] = endpoint: mean survival time, dose: 400.0 mg/kg/injection, schedule: Q01DX001 (ip), vehicle: saline with Tween-80
[14] = endpoint: mean survival time, dose: 50.0 mg/kg/injection, schedule: Q01DX009 (ip), vehicle: saline
[15] = endpoint: mean survival time, dose: 100.0 mg/kg/injection, schedule: Q01DX009 (ip), vehicle: saline
[16] = endpoint: mean survival time, dose: 200.0 mg/kg/injection, schedule: Q04DX003 (ip), vehicle: saline with Tween-80
[17] = endpoint: mean survival time, dose: 400.0 mg/kg/injection, schedule: Q04DX003 (ip), vehicle: saline with Tween-80
[18] = endpoint: mean survival time, dose: 25.0 mg/kg/injection, schedule: Q01DX009 (ip), vehicle: saline
[19] = endpoint: mean survival time, dose: 50.0 mg/kg/injection, schedule: Q01DX009 (ip), vehicle: saline with Tween-80

Measured: T/C

C/C=C(\C)C(=O)N/N=C\c1cc(Cl)cc(Cl)c1O
inactive: [1] 100 % of control | [2] 96 % of control | [3] 94 % of control | [4] 98 % of control | [5] 98 % of control | [6] 100 % of control

O=S(=O)(CS(=O)(=O)Nc1ccccc1)Nc1ccccc1
inactive: [7] 109 % of control

Nc1nc(N)n2nnnc2c1[N+](=O)[O-]
inactive: endpoint: mean survival time, dose: 100.0 mg/kg/injection, schedule: Q01DX001 (ip), vehicle: carboxymethylcellulose (CMC) 108 % of control

COc1ccccc1C(O)(c1ccccc1OC)c1c(OC)cccc1OC
inactive: [8] 97 % of control | [9] 93 % of control | [10] 88 % of control

NC(=S)OCCCCCn1cnc2c(=S)nc[nH]c21
inactive: [11] 95 % of control | [12] 97 % of control | [13] 105 % of control

COC(=O)C12OCC34C(CC5C(C)C6=CC(=O)OC6=CC5(C)C3C(O)C1O)OC(=O)C(O)C24 (stereo not drawn)
inactive: endpoint: median survival time, dose: 0.25 mg/kg/injection, schedule: Q01DX005 (ip), vehicle: Klucel (hydroxypropylcellulose) (HPC) 112 % of control | endpoint: median survival time, dose: 0.5 mg/kg/injection, schedule: Q01DX005 (ip), vehicle: Klucel (hydroxypropylcellulose) (HPC) 114 % of control

[CH3][Pb]([CH3])([CH3])[Cl]
inactive: endpoint: mean survival time, dose: 1.56 mg/kg/injection, schedule: Q01DX009 (ip), vehicle: saline 97 % of control | endpoint: mean survival time, dose: 1.56 mg/kg/injection, schedule: Q04DX002 (ip), vehicle: saline 101 % of control | endpoint: mean survival time, dose: 3.13 mg/kg/injection, schedule: Q01DX009 (ip), vehicle: saline 87 % of control | endpoint: mean survival time, dose: 3.13 mg/kg/injection, schedule: Q04DX002 (ip), vehicle: saline 108 % of control | endpoint: mean survival time, dose: 6.25 mg/kg/injection, schedule: Q04DX002 (ip), vehicle: saline 92 % of control | endpoint: mean survival time, dose: 12.5 mg/kg/injection, schedule: Q04DX002 (ip), vehicle: saline 93 % of control

Cc1cc(O)c(N=Nc2cccc(C(=O)O)c2)cc1C
inactive: [14] 107 % of control | [15] 96 % of control | endpoint: mean survival time, dose: 200.0 mg/kg/injection, schedule: Q01DX009 (ip), vehicle: saline 103 % of control

O=C1OC(=O)c2ccc([N+](=O)[O-])c3c([N+](=O)[O-])ccc1c23
inactive: [7] 92 % of control | [16] 95 % of control | [17] 90 % of control

NCCNC(=O)c1ccccc1
inactive: endpoint: mean survival time, dose: 100.0 mg/kg/injection, schedule: Q04DX003 (ip), vehicle: saline 103 % of control | endpoint: mean survival time, dose: 200.0 mg/kg/injection, schedule: Q04DX003 (ip), vehicle: saline 101 % of control | endpoint: mean survival time, dose: 400.0 mg/kg/injection, schedule: Q04DX003 (ip), vehicle: saline 100 % of control

O=C(Nc1ccccc1)C(Cl)Cl
inactive: [7] 103 % of control | [16] 103 % of control | [17] 97 % of control

N=C(N)SCc1cccs1
inactive: [18] 100 % of control | [14] 103 % of control | [15] 95 % of control

Cc1nc(C)c(C#N)c(=O)[nH]1
inactive: endpoint: mean survival time, dose: 100.0 mg/kg/injection, schedule: Q04DX002 (ip), vehicle: saline with Tween-80 97 % of control | endpoint: mean survival time, dose: 200.0 mg/kg/injection, schedule: Q04DX002 (ip), vehicle: saline with Tween-80 97 % of control | endpoint: mean survival time, dose: 400.0 mg/kg/injection, schedule: Q04DX002 (ip), vehicle: saline with Tween-80 97 % of control

COc1ccc(OC)c(NC(=O)NNC(=O)CNC(=O)Nc2cccc(C)n2)c1
inactive: [9] 92 % of control | [10] 88 % of control

COC(=N)/C(C#N)=N/C1OCC(O)C(O)C1O (stereo not drawn)
inactive: endpoint: mean survival time, dose: 12.5 mg/kg/injection, schedule: Q01DX005 (ip), vehicle: other 101 % of control | endpoint: mean survival time, dose: 25.0 mg/kg/injection, schedule: Q01DX005 (ip), vehicle: other 102 % of control | endpoint: mean survival time, dose: 50.0 mg/kg/injection, schedule: Q01DX005 (ip), vehicle: other 102 % of control | endpoint: mean survival time, dose: 100.0 mg/kg/injection, schedule: Q01DX005 (ip), vehicle: other 102 % of control | endpoint: mean survival time, dose: 200.0 mg/kg/injection, schedule: Q01DX005 (ip), vehicle: other 101 % of control

Oc1ccccc1/C=N/NC(=S)NC1CC2C=CC1C2 (stereo not drawn)
inactive: [1] 98 % of control | [2] 97 % of control | [3] 98 % of control | [4] 94 % of control | [5] 98 % of control | [6] 100 % of control

C1CCC(C2CCCC[N-]2)[N-]C1.CC([NH-])C(=O)O.[Cl][Pt] (stereo not drawn)
inactive: endpoint: median survival time, dose: 10.0 mg/kg/injection, schedule: Q04DX003 (ip), vehicle: saline 107 % of control | endpoint: median survival time, dose: 20.0 mg/kg/injection, schedule: Q04DX003 (ip), vehicle: saline 105 % of control | endpoint: median survival time, dose: 40.0 mg/kg/injection, schedule: Q04DX003 (ip), vehicle: saline 110 % of control | endpoint: median survival time, dose: 80.0 mg/kg/injection, schedule: Q04DX003 (ip), vehicle: saline 97 % of control and 104 % of control | endpoint: median survival time, dose: 160.0 mg/kg/injection, schedule: Q04DX003 (ip), vehicle: saline 108 % of control | endpoint: median survival time, dose: 320.0 mg/kg/injection, schedule: Q04DX003 (ip), vehicle: saline 96 % of control

CCCCCCCCN(c1ccc(I)cc1)S(=O)(=O)c1ccc(C)cc1
inactive: [7] 94 % of control | [16] 94 % of control

CCOC(=O)c1ccc(NC(=O)C(Br)C(Br)C(=O)O)cc1 (stereo not drawn)
inactive: [11] 110 % of control | [12] 110 % of control | [13] 108 % of control

CCCCNC(C)(C)C(=O)c1cccs1
inactive: [18] 94 % of control | [14] 98 % of control | [15] 100 % of control

Cc1ccc(CCF)cc1
inactive: [11] 107 % of control | [12] 109 % of control

C/C=C/C=C/C(=O)c1cc(C#N)c(OC)cc1O
inactive: [11] 88 % of control | [12] 88 % of control | [13] 89 % of control

CCOP(=O)(N=S=O)OCC
inactive: endpoint: mean survival time, dose: 12.5 mg/kg/injection, schedule: Q04DX003 (ip), vehicle: saline 100 % of control | endpoint: mean survival time, dose: 25.0 mg/kg/injection, schedule: Q04DX003 (ip), vehicle: saline 103 % of control | endpoint: mean survival time, dose: 50.0 mg/kg/injection, schedule: Q04DX003 (ip), vehicle: saline 113 % of control

CC(C)C1=CC2=C(CC1)C1(C)CCCC(C)(C(=O)O)C1CC2 (stereo not drawn)
inactive: [8] 98 % of control | [7] 104 % of control | [9] 96 % of control | [16] 98 % of control | [10] 89 % of control | [17] 93 % of control

CCN(CC)CCN1Cc2ccccc2C1
inactive: endpoint: mean survival time, dose: 25.0 mg/kg/injection, schedule: Q01DX009 (ip), vehicle: saline with Tween-80 102 % of control | [19] 94 % of control | [8] 96 % of control and 107 % of control

Nc1nc2c(ncn2CCCc2ccccc2)c(=O)[nH]1
inactive: [11] 94 % of control | [12] 94 % of control

[Cl][Dy]([Cl])[Cl]
inactive: [19] 89 % of control | [9] 90 % of control
